# Results published in patent US12065404B2, “C4-carboxylic acid-substituted tryptamine derivatives and methods of using” (priority 2022, dated 2024).
# Several values for one entry are separate records, joined by “and”; a condition that tells them apart may be missing. Equal values may be shown once. Entries after “also recorded” stand apart in the source; their conditions may differ. Read-outs that look alike come from different tables or passages of the source. Marks after values point to notes of the source that are not given here.
# Legend:
# 5-HT1A receptor = molecular target: T1, 5-HT1A receptor (Homo sapiens, UniProt P08908); experiment: cAMP-Glo assay of 5-HT1A receptor modulation, +5-HT1A (CHO-K1/5-HT1A/Ga15) vs -5-HT1A (CHO-K1/Ga15) cells; assay type: cell-based; set-up: dose or concentration left out as unconfirmed; details: +5-HT1A vs -5-HT1A cell cultures stimulated with forskolin, increasing ligand concentrations
# T1 construct: host or cells: CHO-K1 (co-expressing Ga15)
# T1 sequence (P08908 1-422): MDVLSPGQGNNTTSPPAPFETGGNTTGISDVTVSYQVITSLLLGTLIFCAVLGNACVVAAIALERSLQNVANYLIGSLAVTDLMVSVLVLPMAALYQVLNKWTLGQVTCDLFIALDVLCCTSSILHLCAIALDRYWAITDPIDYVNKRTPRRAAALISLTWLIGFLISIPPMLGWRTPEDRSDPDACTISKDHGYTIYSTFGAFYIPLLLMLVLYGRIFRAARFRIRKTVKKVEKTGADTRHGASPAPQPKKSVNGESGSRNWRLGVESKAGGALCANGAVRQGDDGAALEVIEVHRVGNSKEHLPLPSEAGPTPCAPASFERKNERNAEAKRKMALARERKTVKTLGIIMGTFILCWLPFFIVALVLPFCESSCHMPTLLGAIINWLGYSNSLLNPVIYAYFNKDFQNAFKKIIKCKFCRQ
# [1] = molecular target: T2, neuronal 5-HT2A receptor (5-HT2AR) (Mus musculus, UniProt P35363); experiment: Drug-induced Head Twitch Response (HTR) in mice; assay type: in vivo, C57BL/6-Elite mice; details: 1 mg/kg i.p., 15-to-30-minute window post-drug, relative to vehicle-treated control mice
# T2 construct: HTR was measured in mice treated with a control and test compounds; tissue Charles River; host or cells: live C57BL/6-Elite mice (neuronal receptor)
# T2 sequence (P35363 whole entry): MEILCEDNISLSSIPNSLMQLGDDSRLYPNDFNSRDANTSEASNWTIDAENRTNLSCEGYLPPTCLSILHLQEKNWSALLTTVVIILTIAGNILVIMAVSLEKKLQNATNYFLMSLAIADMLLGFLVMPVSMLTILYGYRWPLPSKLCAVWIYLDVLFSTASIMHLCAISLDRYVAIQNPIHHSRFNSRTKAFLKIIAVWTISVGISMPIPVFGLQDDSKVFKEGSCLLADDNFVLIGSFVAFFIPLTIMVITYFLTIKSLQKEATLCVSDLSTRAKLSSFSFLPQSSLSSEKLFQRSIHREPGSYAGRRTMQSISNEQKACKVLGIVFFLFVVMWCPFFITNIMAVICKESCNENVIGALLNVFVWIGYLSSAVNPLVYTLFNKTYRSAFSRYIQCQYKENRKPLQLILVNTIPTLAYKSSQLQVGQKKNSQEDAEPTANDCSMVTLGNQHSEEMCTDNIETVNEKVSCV
# [2] = Mouse pharmacokinetic (PK) study, parent compound and psilocin metabolite in plasma; assay type: in vivo, C57Bl/6 mice; details: for Detectability of administered compound in plasma, any animals at any dose: i.v. and oral doses
# Description: (§1) Briefly, the procedure was as follows. […] 19, 2022.
# [3] = LC-MS measurement of dosing solution concentrations (nominal vs measured); assay type: physicochemical
# Method: as §1
# Pharmacokinetic (PK) evaluations were performed in the same manner as described in Example 1, except compound C(IV) was used in place of compound C(V). […] Thus, only psilocin PK analysis was performed. […] Table 46 summarizes these “measured” concentrations along with corresponding “nominal” concentrations for each dosing solution. Results for psilocin PK following C(IV) administration are found in Tables 47A-47B (0.293 mg/kg IV dose), Tables 48A-48B (0.275 mg/kg oral dose), Tables 49A-49B (0.789 mg/kg oral dose), Tables 50A-50B (2.52 mg/kg oral dose), Table 51 (comparative summary for IV data), Table 52 (comparative summary for oral data), Table 53A (psilocin exposure) and FIGS. 10H (i) and 10H (ii).
# GABAA = GABAA (Homo sapiens, UniProt P14867+P18507+P47870); assay type: cell-based; details: ion channel
# GABAA, sequence (P14867 28-456): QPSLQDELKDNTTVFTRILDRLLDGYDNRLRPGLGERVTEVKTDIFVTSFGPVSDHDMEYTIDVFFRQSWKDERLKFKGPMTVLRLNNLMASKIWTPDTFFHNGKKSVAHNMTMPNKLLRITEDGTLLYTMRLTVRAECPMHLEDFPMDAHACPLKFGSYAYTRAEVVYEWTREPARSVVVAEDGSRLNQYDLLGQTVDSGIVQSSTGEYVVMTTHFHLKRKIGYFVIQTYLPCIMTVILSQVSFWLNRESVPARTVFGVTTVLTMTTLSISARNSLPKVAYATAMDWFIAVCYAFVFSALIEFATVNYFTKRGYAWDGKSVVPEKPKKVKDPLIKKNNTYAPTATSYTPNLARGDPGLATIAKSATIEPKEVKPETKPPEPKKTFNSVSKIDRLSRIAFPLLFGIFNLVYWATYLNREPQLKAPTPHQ
# GABAA, sequence (P47870 26-512): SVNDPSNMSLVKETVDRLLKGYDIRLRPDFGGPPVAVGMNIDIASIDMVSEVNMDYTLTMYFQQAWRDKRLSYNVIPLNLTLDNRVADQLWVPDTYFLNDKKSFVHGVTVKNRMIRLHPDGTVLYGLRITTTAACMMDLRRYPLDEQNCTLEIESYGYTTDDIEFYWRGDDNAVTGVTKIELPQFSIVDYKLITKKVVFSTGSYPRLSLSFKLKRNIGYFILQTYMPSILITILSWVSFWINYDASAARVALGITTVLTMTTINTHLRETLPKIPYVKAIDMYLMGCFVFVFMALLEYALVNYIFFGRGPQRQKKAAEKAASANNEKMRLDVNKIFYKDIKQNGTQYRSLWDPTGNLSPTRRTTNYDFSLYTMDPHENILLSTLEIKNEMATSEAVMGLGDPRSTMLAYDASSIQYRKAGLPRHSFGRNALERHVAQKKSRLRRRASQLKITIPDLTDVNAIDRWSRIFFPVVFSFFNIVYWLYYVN
# GABAA, sequence (P18507 40-475): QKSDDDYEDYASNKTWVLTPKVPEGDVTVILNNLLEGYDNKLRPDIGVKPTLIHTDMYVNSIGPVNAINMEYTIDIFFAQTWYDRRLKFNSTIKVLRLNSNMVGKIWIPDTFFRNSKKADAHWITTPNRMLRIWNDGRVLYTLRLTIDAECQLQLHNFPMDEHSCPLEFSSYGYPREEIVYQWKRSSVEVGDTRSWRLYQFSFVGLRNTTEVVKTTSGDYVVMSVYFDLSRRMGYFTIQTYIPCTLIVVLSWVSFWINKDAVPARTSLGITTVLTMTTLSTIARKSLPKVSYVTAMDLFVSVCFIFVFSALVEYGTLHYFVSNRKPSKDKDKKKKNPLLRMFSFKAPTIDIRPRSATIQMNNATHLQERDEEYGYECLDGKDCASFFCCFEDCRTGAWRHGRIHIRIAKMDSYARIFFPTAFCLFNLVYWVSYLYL
# 5-HT2A receptor = 5-HT2A receptor (Homo sapiens, UniProt P28223); experiment: [3H]ketanserin competition binding assay (SPA) at 5-HT2A; details: 1 nM [3H]ketanserin, FIGS. 3E, 3F
# 5-HT2A receptor, sequence (P28223 whole entry): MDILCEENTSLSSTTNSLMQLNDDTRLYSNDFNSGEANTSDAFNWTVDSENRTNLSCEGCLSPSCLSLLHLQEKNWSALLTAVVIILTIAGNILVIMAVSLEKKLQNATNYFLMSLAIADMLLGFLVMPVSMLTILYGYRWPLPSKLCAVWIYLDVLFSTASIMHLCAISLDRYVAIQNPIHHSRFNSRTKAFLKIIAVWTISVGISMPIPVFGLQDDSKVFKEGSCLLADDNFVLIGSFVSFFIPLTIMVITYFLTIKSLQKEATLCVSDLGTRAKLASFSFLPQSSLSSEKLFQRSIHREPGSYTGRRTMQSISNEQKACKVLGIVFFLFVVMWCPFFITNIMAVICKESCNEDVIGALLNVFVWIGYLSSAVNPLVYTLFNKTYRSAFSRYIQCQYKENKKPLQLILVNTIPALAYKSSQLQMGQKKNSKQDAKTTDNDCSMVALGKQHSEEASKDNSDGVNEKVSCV
# [4] = mouse, prodrug 1 mg/kg i.v., 8 h, individual animals
# [5] = mouse, prodrug 1 mg/kg oral, 8 h, individual animals
# [6] = mouse, prodrug 1 mg/kg oral, 24 h, individual animals
# [7] = mouse, prodrug 3 mg/kg oral, 24 h, individual animals
# [8] = mouse, prodrug 10 mg/kg oral, 24 h, individual animals
smiles,measurement,setting,value
CN(C)CCc1c[nH]c2cccc(OC(=O)CC3CC3)c12 [C(IV)],5-HT1A receptor modulation (reduction of cAMP levels),5-HT1A receptor,significant receptor modulation
same,Incidences of Head Twitch Response (HTR),[1],Elevated incidences of HTR
same,Plasma concentration of psilocin,"[2]; 0.275 mg/kg oral C(IV), 24 h, animals M64-M66",No Peak
same,Plasma concentration of psilocin,"[2]; 0.789 mg/kg oral C(IV), 24 h, animals M67-M69",No Peak
same,"Detectability of administered compound in plasma, any animals at any dose",[2]; mouse,not detectable in any animals at any dose
same,"Psilocin, measured, in C(IV) residual dosing solution","[3]; C(IV) nominal 0.1 mg/mL, not accurate, peak below LLOQ, for reference only",0.00174^d mg/mL
same,"Psilocin, measured, in C(IV) residual dosing solution",[3]; C(IV) nominal 0.2 mg/mL,0.00324 mg/mL
same,"Psilocin, measured, in C(IV) residual dosing solution",[3]; C(IV) nominal 0.3 mg/mL,0.00474 mg/mL
same,"Psilocin, measured, in C(IV) residual dosing solution",[3]; C(IV) nominal 1 mg/mL,0.0234 mg/mL
same,Stability in dosing solutions,[3]; PK dosing solutions,compound instability in dosing solutions
same,"C(IV), measured, residual dosing solution concentration",[3]; nominal 0.1 mg/mL,0.0275 mg/mL
same,"C(IV), measured, residual dosing solution concentration",[3]; nominal 0.2 mg/mL,0.0586 mg/mL
same,"C(IV), measured, residual dosing solution concentration",[3]; nominal 0.3 mg/mL,0.0789 mg/mL
same,"C(IV), measured, residual dosing solution concentration",[3]; nominal 1 mg/mL,0.252 mg/mL
same,IC50,GABAA; blocker (BL),> 100 µM
same,EC50,GABAA; opener (OP),> 100 µM
COC(=O)c1cccc(C(=O)Oc2cccc3[nH]cc(CCN(C)C)c23)c1 [C(XLIII)],5-HT1A receptor modulation (reduction of cAMP levels),5-HT1A receptor,receptor modulation at higher ligand concentrations
"NCCc1c[nH]c2ccc(O)cc12 [serotonin, reference compound]",5-HT1A receptor modulation (reduction of cAMP levels),5-HT1A receptor,reduction in cAMP levels
CN(C)CCc1c[nH]c2cccc(OC(=O)c3cccc(C(=O)Oc4cccc5[nH]cc(CCN(C)C)c45)c3)c12 [C(VII)],5-HT1A receptor modulation (reduction of cAMP levels),5-HT1A receptor,no significant receptor modulation
same,Incidences of Head Twitch Response (HTR),[1],Elevated incidences of HTR
CN(C)CCc1c[nH]c2cccc(OC(=O)c3c(F)c(F)c(F)c(F)c3F)c12 [C(VI)],5-HT1A receptor modulation (reduction of cAMP levels),5-HT1A receptor,no receptor modulation at higher ligand concentrations
same,Incidences of Head Twitch Response (HTR),[1],Elevated incidences of HTR
same,"Detectability of administered compound in plasma, any animals at any dose",[2]; mouse,not detectable in any animals at any dose
same,Plasma concentration of psilocin,[2]; [4],BLQ (BLQ denotes below the lower limit of quantitation (0.2 ng/ml).)
same,Plasma concentration of psilocin,[2]; [5],BLQ (BLQ denotes below the lower limit of quantitation (0.2 ng/ml).)
same,Plasma concentration of psilocin,[2]; [6],BLQ (BLQ denotes below the lower limit of quantitation (0.2 ng/ml).); also recorded: No Peak
same,Plasma concentration of psilocin,[2]; [7],BLQ (BLQ denotes below the lower limit of quantitation (0.2 ng/ml).); also recorded: No Peak
same,Plasma concentration of psilocin,[2]; [8],BLQ (BLQ denotes below the lower limit of quantitation (0.2 ng/ml).)
same,IC50,GABAA; blocker (BL),> 100 µM
same,EC50,GABAA; opener (OP),> 100 µM
"CN(C)CCc1c[nH]c2cccc(O)c12 [psilocin, reference compound]",5-HT1A receptor modulation (reduction of cAMP levels),5-HT1A receptor,reduction in cAMP levels
same,Competition binding vs [3H]ketanserin at 5-HT2A (control outcome),5-HT2A receptor,binding
COCCOCCOCC(=O)Oc1cccc2[nH]cc(CCN(C)C)c12 [C(III)],5-HT1A receptor modulation (reduction of cAMP levels),5-HT1A receptor,significant receptor modulation
same,Incidences of Head Twitch Response (HTR),[1],Elevated incidences of HTR
"N[C@@H](Cc1c[nH]c2ccccc12)C(=O)O [tryptophan, reference compound]",5-HT1A receptor modulation (reduction of cAMP levels),5-HT1A receptor,no reduction in cellular cAMP levels
same,Competition binding vs [3H]ketanserin at 5-HT2A (control outcome),5-HT2A receptor,no binding
COc1ccc(C(=O)Oc2cccc3[nH]cc(CCN(C)C)c23)cc1 [C(V)],5-HT1A receptor modulation (reduction of cAMP levels),5-HT1A receptor,mild receptor modulation at higher ligand concentrations
same,Incidences of Head Twitch Response (HTR),[1],Elevated incidences of HTR
same,"Detectability of administered compound in plasma, i.v. administered animals","[2]; mouse, 1 mg/kg i.v.",only detectable in i.v. administered animals
same,"Detectability of administered compound in plasma, orally administered animals","[2]; mouse, oral, any dose (1, 3, 10 mg/kg)",not detectable in orally administered animals at any dose
same,Plasma concentration of administered (parent) compound,"[2]; mouse, 1 mg/kg i.v., 5 min, individual animals, 1 mg/kg",6.53 ng/mL and 53.8 ng/mL and 13.5 ng/mL
same,Plasma concentration of administered (parent) compound,"[2]; mouse, 1 mg/kg i.v., 5 min, mean ± SD",24.6 ± 25.5 ng/mL
same,Plasma concentration of administered (parent) compound,"[2]; mouse, 1 mg/kg i.v., 0.25 h, individual animals, 1 mg/kg",BLQ (BLQ denotes below the lower limit of quantitation (0.5 ng/mL).)
same,Plasma concentration of administered (parent) compound,"[2]; mouse, 1 mg/kg i.v., 0.25 h, mean ± SD",0.834 (n = 1) ng/mL
same,Plasma concentration of administered (parent) compound,"[2]; mouse, 1 mg/kg i.v., 0.5 h, individual animals, 1 mg/kg",BLQ (BLQ denotes below the lower limit of quantitation (0.5 ng/mL).); also recorded: No Peak
same,Plasma concentration of administered (parent) compound,"[2]; mouse, 1 mg/kg i.v., 1 h, individual animals",No Peak
same,Plasma concentration of administered (parent) compound,"[2]; mouse, 1 mg/kg i.v., 2 h, individual animals",No Peak
same,Plasma concentration of administered (parent) compound,"[2]; mouse, 1 mg/kg i.v., 4 h, individual animals",No Peak
same,Plasma concentration of administered (parent) compound,"[2]; mouse, 1 mg/kg i.v., 6 h, individual animals",No Peak
same,Plasma concentration of administered (parent) compound,"[2]; mouse, 1 mg/kg i.v., 8 h, individual animals",No Peak
same,Cmax of administered (parent) compound,"[2]; mouse, 1 mg/kg i.v., individual animals, 1 mg/kg",6.53 ng/mL and 53.8 ng/mL and 13.5 ng/mL
same,Cmax of administered (parent) compound,"[2]; mouse, 1 mg/kg i.v., mean ± SD",24.6 ± 25.5 ng/mL
same,Plasma concentration of psilocin,[2]; [4],BLQ (BLQ denotes below the lower limit of quantitation (0.2 ng/ml).)
same,Plasma concentration of psilocin,[2]; [5],BLQ (BLQ denotes below the lower limit of quantitation (0.2 ng/ml).)
same,Plasma concentration of psilocin,[2]; [6],No Peak; also recorded: BLQ (BLQ denotes below the lower limit of quantitation (0.2 ng/ml).)
same,Plasma concentration of psilocin,[2]; [7],No Peak; also recorded: BLQ (BLQ denotes below the lower limit of quantitation (0.2 ng/ml).)
same,Plasma concentration of psilocin,[2]; [8],BLQ (BLQ denotes below the lower limit of quantitation (0.2 ng/ml).); also recorded: No Peak
same,Stability in plasma,"[2]; plasma, LC-MS bioanalysis of the mouse PK study","unstable in plasma; also recorded: ^aA freshly spiked calibration curve was used for quantification C(V) is not stable in plasma; concentrations are not considered accurate; also recorded: ^aDue to C(V) instability in plasma, the PK parameter estimates are not considered accurate"
same,IC50,GABAA; blocker (BL) mode,> 100 µM
same,EC50,GABAA; opener (OP) mode,> 100 µM
